Source: paper PMC12562276, “Effects of Intramuscular Vasopressin on Pharmacokinetics and Pharmacodynamics in Healthy Neonatal Piglets: A Dose–Response Study” (Children, 2025)
Like-named read-outs stand apart in the source and are kept apart here.

Assays:
healthy neonatal piglets [1] = assay: Autopsy of IM injection sites for local tissue damage; assay type: in vivo; settings: autopsies post-euthanasia; IM 4 or 8 IU/kg, left inner thigh muscle
Description: (§1) Following surgical instrumentation and stabilization, a consecutively numbered, sealed brown envelope containing the group allocation was opened (Figure 1). Piglets were randomized into three groups: 0.4 IU/kg IV vasopressin 4 IU/kg IM vasopressin, or 8 IU/kg IM vasopressin. Piglets that were randomized to “IM” were administered one dose intramuscularly in the left inner thigh muscle while piglets randomized to “IV” were administered one dose via the femoral venous catheter followed with a 3 mL normal saline bolus. Arterial blood was collected before drug administration (baseline = time point “0 min”), 1, 2, 3, 4, 5, and 10 min after drug administration. Following final collection of blood, piglets were euthanized with an intravenous overdose of sodium pentobarbital and autopsies of IM injection sites were conducted to assess local tissue damage […].

[2] = Plasma vasopressin concentrations and pharmacokinetics after IV or IM vasopressin; assay type: in vivo, neonatal piglets; settings: for level at 1 min / level at 5 min / level at 10 min / AUC(0-t): pig, plasma, n = 5/group, median (IQR); for level at 1 min: 1 min after administration; for level at 1 min / level at 5 min / level at 10 min: arterial blood, read-out: Plasma vasopressin concentration; for level at 5 min: 5 min after administration; for level at 10 min: 10 min after administration; for AUC(0-t): neonatal piglets, read-out: Area under the curve from baseline to 10 min (AUC0–10) (converted)
Description: as §1
Demographics of study piglets were recorded. Transonic flow probes, heart rate, and pressure transducer outputs, and Millar catheter were digitized and recorded with LabChart® 8.1.30, programming software (ADInstruments, Houston, TX, USA). Plasma vasopressin concentrations and pharmacokinetic parameters were quantified and analyzed as previously described. Reported plasma vasopressin concentrations only represent exogenous arginine vasopressin. Since pigs produce lysine vasopressin, endogenous vasopressin concentrations could not be quantified.
The data are presented as mean (standard deviation—SD) for normally distributed continuous variables and median (interquartile range—IQR) when the distribution was skewed. The data was tested for normality (Shapiro–Wilk and Kolmogorov–Smirnov test) and compared using either Student’s t-test (data normally distributed), Rank Sum if data were skewed, one- and two-way ANOVA with Dunnett post-test, or Fisher’s exact test for categorical variables. Both Hedges’ g and Cliff’s delta (δ) were reported as standardized measures of effect size as appropriate for parametric and non-parametric data, respectively. Pearson or Spearman’s correlations were reported for parametric or non-parametric data, respectively. p-values are 2-sided and p < 0.05 was considered statistically significant. Statistical analyses were performed with SigmaPlot (Systat Software Inc., San Jose, CA, USA) and R version 4.3.2.

dogs = settings: IV vasopressin, cited from earlier work
Source text: In the current study, we determined the optimal IM vasopressin dose to be 8 IU/kg, as there were significant changes in hemodynamics and left ventricular contractile function following its administration, while there were little to no hemodynamic changes following 4 IU/kg IM vasopressin administration. […] Even if IV access can be achieved before two minutes, IV concentra ...

healthy neonatal piglets [3] = assay: Hemodynamic and cardiac function parameters after IV or IM vasopressin; assay type: in vivo; settings: for Changes in hemodynamic parameters: n = 5
Description: Piglets were instrumented as previously described with modifications. Following induction of anesthesia using isoflurane, piglets underwent a tracheostomy for intubation. Pressure-controlled ventilation (Sechrist Infant Ventilator Model IV-100; Sechrist Industries, Anaheim, CA, USA) was commenced at a respiratory rate of 16–20 breaths/min and pressure of 20/5 cmH2O. Oxygen saturation was maintained within 90–100%, while glucose was provided via an IV infusion of 5% dextrose at 10 mL/kg/hr. IV propofol (5–10 mg/kg/h) and morphine (0.1 mg/kg/h) were provided to maintain anaesthesia, and additional IV doses of propofol (1–2 mg/kg) and morphine (0.05–0.1 mg/kg) were administered as needed (i.e., to maintain adequate sedation/pain medication as determined by movement/pain response). Piglets’ normothermic body temperature of 38.5–39.5 °C was maintained with a heating pad and overhead warmer.
5-French Argyle® (Klein-Baker Medical Inc. San Antonio, TX, USA) double-lumen and single-lumen catheters were inserted via the right femoral vein and artery, respectively. The femoral venous catheter was used for administration of fluids and medications and the arterial catheter for continuous arterial blood pressure monitoring in addition to arterial blood gas measurements. A real-time ultrasonic flow probe (2 mm; Transonic Systems Inc., Ithica, NY, USA) encircled the right common carotid artery to measure cerebral blood flow. A Millar® catheter (MPVS Ultra1, ADInstruments, Houston, TX, USA) was inserted into the left ventricle via the left common carotid artery for continuous measurement of stroke volume, ejection fraction, end-diastolic and -systolic volumes, left ventricular pressure, and left ventricular contractile function (dP/dtmax, dP/dtmin).
Following surgical instrumentation, piglets were placed in the supine position and allowed to recover from surgical instrumentation until baseline hemodynamic measures were stable (minimum one hour). Ventilator rate was adjusted to maintain the partial arterial CO2 between 35–45 mmHg, as determined by periodic arterial blood gas analysis. A Hewlett Packard 78833B monitor (Hewlett Packard Co., Palo Alto, CA, USA) was used for the continuous measurement of heart rate, mean systemic arterial pressure (MAP), systemic systolic and diastolic arterial pressure, and percutaneous oxygen saturation throughout the experiment.
Cerebral oxygenation (crSO2) was measured using the Invos^TM Cerebral/Somatic Oximeter Monitor (Invos 5100, Somanetics Corp., Troy, MI, USA), which calculates crSO2 and expresses values as the percentage of oxygenated haemoglobin (oxygenated haemoglobin/total haemoglobin). The sensors were placed on the right forehead of the piglet and secured with wrap and tape. A slim cap provided light shielding. Regional oxygen saturation values were recorded every second at a sample rate of […].
as §1
Demographics of study piglets were recorded. […]

[4] = system: isolated working rat heart; settings: during normoxia (not during hypoxia); cited from earlier work
Source text: Through its vasoconstrictor effects, vasopressin increases SVR, thereby increasing arterial blood pressure. […] In an anesthetized open-chest dog model, Nakano administered various doses of vasopressin and reported a dose-related relationship between increasing doses and r ...

[5] = 0.4 IU/kg IV, anesthetized piglets
[6] = 8 IU/kg IM, anesthetized piglets

## NC(=O)CC[C@@H]1NC(=O)[C@H](Cc2ccccc2)NC(=O)[C@H](Cc2ccc(O)cc2)NC(=O)[C@@H](N)CSSC[C@@H](C(=O)N2CCC[C@H]2C(=O)N[C@@H](CCCN=C(N)N)C(=O)NCC(N)=O)NC(=O)[C@H](CC(N)=O)NC1=O [vasopressin, arginine vasopressin]
Healthy neonatal piglets [1]
  Local tissue damage at the IM injection sites: did not reveal any significant local tissue damage
[2]; 4 IU/kg IM vs 0.4 IU/kg IV, p < 0.001
  Plasma concentrations compared with IV vasopressin: significantly lower
[2]; 8 IU/kg IM, two minutes after administration
  Plasma concentrations compared with IV vasopressin: comparable to IV vasopressin
[2]; [5]
  level at 1 min: 2.2 ng/mL
  level at 5 min: 1.74 ng/mL
  level at 10 min: 1.34 ng/mL
[2]; 0.4 IU/kg IV
  AUC(0-t): 0.266 ng·h/mL
[2]; 4 IU/kg IM
  AUC(0-t): 0.155 ng·h/mL
[2]; 8 IU/kg IM, anesthetized piglets 1–3 days old, exogenous arginine vasopressin only
  level at 1 min: 0.39 ng/mL
[2]; [6]
  level at 5 min: 2.64 ng/mL
  level at 10 min: 2.83 ng/mL
[2]; 8 IU/kg IM
  AUC(0-t): 0.339 ng·h/mL
dogs; baroreceptor-denervated dogs
  Decrease in cardiac output: −22.8 (3.0) mL/kg min
  Decrease in heart rate: −10 (5) beats/minute
dogs; healthy dogs
  Decrease in cardiac output: −39.2 (3.8) mL/kg min
  Decrease in heart rate: −22 (4) beats/minute
Healthy neonatal piglets [3]; 0.4 IU/kg IV
  Brain oxygen saturation compared to baseline: Significantly lower
  dP/dtmin: no significant changes
Healthy neonatal piglets [3]; 0.4 IU/kg IV, 1–3 min after administration
  Stroke volume, cardiac output and ejection fraction: significantly lower
Healthy neonatal piglets [3]; 0.4 IU/kg IV, one minute after administration
  Stroke volume and cardiac output: significantly lower
Healthy neonatal piglets [3]; 0.4 IU/kg IV, throughout the experimental period, p = 0.032
  Carotid blood flow compared with 8 IU/kg IM: much lower
Healthy neonatal piglets [3]; 4 IU/kg IM
  Changes in hemodynamic parameters: failed to produce significant changes
Healthy neonatal piglets [3]; 8 IU/kg IM
  dP/dtmax (left ventricular contractile function): significantly reduced
  dP/dtmin: no significant changes
  Changes in hemodynamic parameters: induced significant hemodynamic changes
Healthy neonatal piglets [3]; 8 IU/kg IM, vs baseline
  MAP, systolic and diastolic pressure: significant increases
[4]
  dP/dtmax: significantly decreased
